Experimental data reported in patent US7435837B2, “Dihydrobenzofuranyl alkanamine derivatives and methods for using same” (Wyeth, priority 2003, dated 2008).

target: T1, human 5-hydroxytryptamine-2C (h5-HT2C) receptor (Homo sapiens, UniProt P28335); assay: [125I]DOI binding to membranes of CHO cells expressing the human 5-HT2C receptor; conditions: [125I]DOI radioligand, CHO cell membranes, room temperature 60 min; read-out: 5-HT2C Affinity Ki
T1 construct: expressed in transfected cells; host or cells: CHO (Chinese Hamster Ovary) cells; membranes
T1 sequence (P28335 33-458): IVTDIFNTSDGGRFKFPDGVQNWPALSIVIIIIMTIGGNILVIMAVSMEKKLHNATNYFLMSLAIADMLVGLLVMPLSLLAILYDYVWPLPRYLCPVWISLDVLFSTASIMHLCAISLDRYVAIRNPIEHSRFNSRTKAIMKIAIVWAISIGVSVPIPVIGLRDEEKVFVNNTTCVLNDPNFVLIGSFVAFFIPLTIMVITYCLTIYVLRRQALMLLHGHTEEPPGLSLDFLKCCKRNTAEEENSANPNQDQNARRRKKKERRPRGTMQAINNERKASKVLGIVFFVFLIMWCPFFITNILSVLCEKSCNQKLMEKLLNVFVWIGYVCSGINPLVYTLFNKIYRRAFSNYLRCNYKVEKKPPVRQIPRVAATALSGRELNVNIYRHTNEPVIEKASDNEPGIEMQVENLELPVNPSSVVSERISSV

Compound	Ki [nM]
CNCC1Cc2cc(-c3ccccc3)cc(-c3cccc(Cl)c3)c2O1 (racemic) [Example 506, (±)-{[7-(3-chlorophenyl)-5-phenyl-2,3-dihydro-1-benzofuran-2-yl]methyl}methylamine]	1600
CNCC1Cc2cc(-c3ccccc3)cc(-c3ccc(Cl)cc3)c2O1 (racemic) [Example 507, (±)-{[7-(4-chlorophenyl)-5-phenyl-2,3-dihydro-1-benzofuran-2-yl]methyl}methylamine]	2730
CNCC1Cc2cc(-c3ccccc3)cc(-c3ccccc3F)c2O1 (racemic) [Example 508, (±)-{[7-(2-fluorophenyl)-5-phenyl-2,3-dihydro-1-benzofuran-2-yl]methyl}methylamine]	1800
CNCC1Cc2cc(-c3ccccc3)cc(-c3cccc(C)c3)c2O1 (racemic) [Example 512, (±)-{[7-(3-methylphenyl)-5-phenyl-2,3-dihydro-1-benzofuran-2-yl]methyl}methylamine]	810
CNCC1Cc2cc(-c3ccccc3)cc(-c3ccc(C)cc3)c2O1 (racemic) [Example 513, (±)-{[7-(4-methylphenyl)-5-phenyl-2,3-dihydro-1-benzofuran-2-yl]methyl}methylamine]	1150
CNCC1Cc2cc(-c3ccccc3)cc(-c3cccc(OC)c3)c2O1 (racemic) [Example 515, (±)-{[7-(3-methoxyphenyl)-5-phenyl-2,3-dihydro-1-benzofuran-2-yl]methyl}methylamine]	965
CNCC1Cc2cc(-c3ccccc3)cc(-c3ccc(OC)cc3)c2O1 (racemic) [Example 516, (±)-{[7-(4-methoxyphenyl)-5-phenyl-2,3-dihydro-1-benzofuran-2-yl]methyl}methylamine]	1580
CNCC1Cc2cc(-c3ccccc3)cc(-c3ccc(F)cc3F)c2O1 (racemic) [Example 517, (±)-{[7-(2,4-difluorophenyl)-5-phenyl-2,3-dihydro-1-benzofuran-2-yl]methyl}methylamine]	2140
CNCC1Cc2cc(C(F)(F)F)cc(-c3cccc(C)c3)c2O1 (racemic) [Example 519, (±)-N-methyl-1-[7-(3-methylphenyl)-5-(trifluoromethyl)-2,3-dihydro-1-benzofuran-2-yl]methanamine]	488
CNCC1Cc2cc(C(F)(F)F)cc(-c3ccc(F)c(Cl)c3)c2O1 (racemic) [Example 525, (±)-{[7-(3-chloro-4-fluorophenyl)-5-(trifluoromethyl)-2,3-dihydro-1-benzofuran-2-yl]methyl}methylamine]	559
CNCC1Cc2cc(C(F)(F)F)cc(-c3cc(C(F)(F)F)cc(C(F)(F)F)c3)c2O1 (racemic) [Example 527, (±)-{[7-[3,5-bis(trifluoromethyl)phenyl]-5-(trifluoromethyl)-2,3-dihydro-1-benzofuran-2-yl]methyl}methylamine]	4740
CNCC1Cc2cc(-c3ccccc3C)cc(F)c2O1 (racemic) [Example 528, (±)-{[7-fluoro-5-(2-methylphenyl)-2,3-dihydro-1-benzofuran-2-yl]methyl}methylamine]	1090
CNCC1Cc2cc(-c3ccccc3Cl)cc(F)c2O1 (racemic) [Example 529, (±)-{[7-fluoro-5-(2-chlorophenyl)-2,3-dihydro-1-benzofuran-2-yl]methyl}methylamine]	616
CNCC1Cc2cc(-c3ccccc3F)cc(F)c2O1 (racemic) [Example 530, (±)-{[7-fluoro-5-(2-fluorophenyl)-2,3-dihydro-1-benzofuran-2-yl]methyl}methylamine]	915
CNCC1Cc2cc(-c3ccccc3OC)cc(F)c2O1 (racemic) [Example 532, (±)-{7-fluoro-5-[2-methoxyphenyl]-2,3-dihydro-1-benzofuran-2-yl}methyl)methylamine]	3350
CNCC1Cc2cc(-c3cccc(C)c3)cc(F)c2O1 (racemic) [Example 533, (±)-{7-fluoro-5-[3-methylphenyl]-2,3-dihydro-1-benzofuran-2-yl}methyl)methylamine]	1520
CNCC1Cc2cc(-c3cccc(Cl)c3)cc(F)c2O1 (racemic) [Example 534, (±)-{7-fluoro-5-[3-chlorophenyl]-2,3-dihydro-1-benzofuran-2-yl}methyl)methylamine]	1050
CNCC1Cc2cc(-c3cccc(F)c3)cc(F)c2O1 (racemic) [Example 535, (±)-{[7-fluoro-5-(3-fluorophenyl)-2,3-dihydro-1-benzofuran-2-yl]methyl}methylamine]	1090
CNCC1Cc2cc(-c3cccc(C(F)(F)F)c3)cc(F)c2O1 (racemic) [Example 536, (±)-{7-fluoro-5-[3-(trifluoromethyl)phenyl]-2,3-dihydro-1-benzofuran-2-yl}methyl)methylamine]	1120
CNCC1Cc2cc(-c3cccc(OC)c3)cc(F)c2O1 (racemic) [Example 537, (±)-{7-fluoro-5-[3-methoxyphenyl]-2,3-dihydro-1-benzofuran-2-yl}methyl)methylamine]	1690

The next lines start with the values.

Ki [nM]	Compound
0.5	NCC1Cc2ccc(Cl)c(-c3ccccc3Cl)c2O1 (racemic) [Example 400, (±)-{[6-chloro-7-(2-chlorophenyl)-2,3-dihydro-1-benzofuran-2-yl]methyl}amine]
0.4	CNCC1Cc2ccc(Cl)c(-c3ccccc3Cl)c2O1 (racemic) [Example 404, (±)-{[6-chloro-7-(2-chlorophenyl)-2,3-dihydro-1-benzofuran-2-yl]methyl}methylamine]
60	CNCC1Cc2cc(OC)cc(-c3cc(Cl)ccc3OC)c2O1 (racemic) [Example 502, (±)-{[7-(5-chloro-2-methoxyphenyl)-5-methoxy-2,3-dihydro-1-benzofuran-2-yl]methyl}methylamine]
78	CNCC1Cc2cc(OC)cc(-c3ccc(F)c(Cl)c3)c2O1 (racemic) [Example 503, (±)-{[7-(3-chloro-4-fluorophenyl)-5-methoxy-2,3-dihydro-1-benzofuran-2-yl]methyl}methylamine]
371	CNCC1Cc2cc(-c3ccccc3)cc(-c3ccccc3Cl)c2O1 (racemic) [Example 505, (±)-{[7-(2-chlorophenyl)-5-phenyl-2,3-dihydro-1-benzofuran-2-yl]methyl}methylamine]
248	CNCC1Cc2cc(-c3ccccc3)cc(-c3ccccc3C)c2O1 (racemic) [Example 511, (±)-{[7-(2-methylphenyl)-5-phenyl-2,3-dihydro-1-benzofuran-2-yl]methyl}methylamine]
242	CNCC1Cc2cc(-c3ccccc3)cc(-c3ccccc3OC)c2O1 (racemic) [Example 514, (±)-{[7-(2-methoxyphenyl)-5-phenyl-2,3-dihydro-1-benzofuran-2-yl]methyl}methylamine]
372	CNCC1Cc2cc(C(F)(F)F)cc(-c3cccc(F)c3)c2O1 (racemic) [Example 520, (±)-N-methyl-1-[7-(3-fluorophenyl)-5-(trifluoromethyl)-2,3-dihydro-1-benzofuran-2-yl]methanamine]
246	CNCC1Cc2cc(C(F)(F)F)cc(-c3cccc(F)c3F)c2O1 (racemic) [Example 521, (±)-N-methyl-1-[7-(2,3-difluorophenyl)-5-(trifluoromethyl)-2,3-dihydro-1-benzofuran-2-yl]methanamine]
474	CNCC1Cc2cc(C(F)(F)F)cc(-c3ccc(F)c(F)c3)c2O1 (racemic) [Example 522, (±)-N-methyl-1-[7-(3,4-difluorophenyl)-5-(trifluoromethyl)-2,3-dihydro-1-benzofuran-2-yl]methanamine]
61	CNCC1Cc2cc(C(F)(F)F)cc(-c3cc(F)ccc3F)c2O1 (racemic) [Example 523, (±)-N-methyl-1-[7-(2,5-difluorophenyl)-5-(trifluoromethyl)-2,3-dihydro-1-benzofuran-2-yl]methanamine]
136	CNCC1Cc2cc(C(F)(F)F)cc(-c3cccc(Cl)c3Cl)c2O1 (racemic) [Example 524, (±)-N-methyl-1-[7-(2,3-dichlorophenyl)-5-(trifluoromethyl)-2,3-dihydro-1-benzofuran-2-yl]methanamine]
409	CNCC1Cc2cc(-c3ccccc3C(F)(F)F)cc(F)c2O1 (racemic) [Example 531, (±)-{7-fluoro-5-[2-(trifluoromethyl)phenyl]-2,3-dihydro-1-benzofuran-2-yl}methyl)methylamine]
380	CNCC1Cc2cc(-c3ccc(C)cc3)cc(F)c2O1 (racemic) [Example 538, (±)-{7-fluoro-5-[4-methylphenyl]-2,3-dihydro-1-benzofuran-2-yl}methyl)methylamine]
209	CNCC1Cc2cc(-c3ccc(Cl)cc3)cc(F)c2O1 (racemic) [Example 539, (±)-{7-fluoro-5-[4-chlorophenyl]-2,3-dihydro-1-benzofuran-2-yl}methyl)methylamine]
486	CNCC1Cc2cc(-c3ccc(F)cc3)cc(F)c2O1 (racemic) [Example 540, (±)-{[7-fluoro-5-(4-fluorophenyl)-2,3-dihydro-1-benzofuran-2-yl]methyl}methylamine]
316	CNCC1Cc2cc(-c3ccc(C(F)(F)F)cc3)cc(F)c2O1 (racemic) [Example 541, (±)-{7-fluoro-5-[4-(trifluoromethyl)phenyl]-2,3-dihydro-1-benzofuran-2-yl}methyl)methylamine]
